Assay results from the NIST ThermoML archive (doi:10.1021/je700705d).
Numbers after ± are expanded uncertainties.

What was measured:
[1] = Liquid; Ebulliometric method (Recirculating still)
[2] = refractive index (Na D-line) (dimensionless); conditions: 293.15 K; 101.33 kPa; Liquid; Standard Abbe refractometry

| SMILES | Normal boiling temperature [1] [°C] | refractive index [2] |
| --- | --- | --- |
| CC(O)C(C)O (centres undefined) [2,3-butanediol] | 181.06 ± 0.2 | 1.4375 ± 0.0007 |
| CCCCOC(C)=O [butyl ethanoate] | 125.96 ± 0.2 | 1.3941 ± 0.0007 |
